The values that follow come from patent US20070254887A1, “Pharmaceutical Composition for Transdermal Administration of Perospirone” (priority 2004, published 2007).

Data set [1] concerns antiserotonin activity. To be noted: rat; cited from earlier work.
The test system of data set [2] is tryptamine-induced clonic seizures of forepaws. Kind of data set: Antiserotonin activities in rat tryptamine-induced clonic seizures of forepaws model. The class given is in vivo, SD rats. To be noted: for Efficacy (positive numbers/total numbers): placebo tape 1 cm × 1 cm. Here is the method: Antiserotonin activities of the perospirone tape prepared in Example 14 (Formulation 10) and the perospirone tape prepared in Example 15 (Formulation 11) were assessed in a rat tryptamine-induced clonic seizures of forepaws model. The test was carried out according to the description of Jpn. J. Pharmacol. 53, 321-329 (1990).
Specifically, 7-week-old SD rats were dehaired the back on the day before the test, the tapes were patched on the back, and further water was administered orally in an amount of 5 ml/Kg. After the patching of tapes, a tryptamine hydrochloride was administered via tail veins in a dose of 40 mg/Kg at predetermined times as assessment times, and appearance of a clonic seizures of forepaws was observed.
7-Week-old SD rats were dehaired the back on the day before the test, patched with the placebo tape (Reference Formulation 1) containing no perospirone prepared in Reference Example 1 on the back, and administered orally perospirone hydrochloride hydrate in a dose of 3 mg/Kg or 0.5 mg/Kg. After administrations, a tryptamine hydrochloride was administered via tail veins in a dose of 40 mg/Kg at predetermined times as assessment times. An inhibitory effect of a tryptamine-induced behavior was determined in the same manner as Experiment 1.

The test system of data set [3] is apomorphine-induced stereotypy. The experiment in a line: Antidopaminergic activities in rat apomorphine-induced stereotypy model. The class given is in vivo, SD rats. To be noted: for Efficacy (positive numbers/total numbers): placebo tape 1 cm × 1 cm. Here is the method: […]. The test was carried out according to the description of Jpn. J. Pharmacol. 53, 321-329 (1990).
Specifically, 7-week-old SD rats were dehaired the back on the day before the test, patched the tapes on the back, and further water was administered orally in an amount 5 ml/Kg. After the patching, an apomorphine hydrochloride was administered via tail veins in a dose of 1.25 mg/Kg at predetermined times as assessment times, and stereotypy was observed.
7-Week-old SD rats were dehaired the back on the day before the test, patched the placebo tape (Reference Formulation 1) containing no perospirone prepared in Reference Example 1 on the back, and administered orally perospirone hydrochloride hydrate in a dose of 10 mg/Kg or 2 mg/Kg. Thereafter, an apomorphine hydrochloride was administered via tail veins in a dose of 1.25 mg/Kg at predetermined times as assessment times. An inhibitory effect of an apomorphine-induced behavior was determined in the same manner as Experiment 2.

Data set [4] can be described thus: Blood kinetics assessment: serum concentrations of perospirone and ID-15036 after transdermal or oral administration. To be noted: rat, oral administration, first measurement point (FIG. 5). The class given is in vivo, SD male rats. Here is the method:
7-Week-old SD male rats were anesthetized and dehaired the abdomen. The rats were administered with transdermal formulations Formulations 1 to 8 in the sites of the dehaired abdomen and constantly collected blood, and serums were separated. The serums were partitioned and extracted with n-hexane-chloroform (7:3) and about 0.0005M aqueous sodium hydroxide solution, and the organic layers were evaporated and dried to solids. The resulting solids were dissolved, and serum concentrations of perospirone and its main metabolite ID-15036 were determined by quantification via reverse phase high performance liquid chromatography. […]
7-Week-old SD male rats were administered orally with 10 mg/kg of a solution of perospirone hydrochloride hydrate in a distilled water for injection in a concentration of 2 mg/ml, and the blood was collected with lapse of time. Serum concentrations of perospirone and the main metabolite ID-15036 were determined in the same manner as Experiment 3. […]

Where a name gives a salt, the structure may show the parent alone.

On to `O=C1C2CCCCC2(O)C(=O)N1CCCCN1CCN(c2nsc3ccccc23)CC1` (centres unmarked) [ID-15036], for which the “antiserotonin activity compared to perospirone” value in data set [1] is “about ⅛”.

Take `O=C1[C@H]2CCCC[C@H]2C(=O)N1CCCCN1CCN(c2nsc3ccccc23)CC1` [perospirone hydrochloride hydrate]: the “Efficacy (positive numbers/total numbers)” value in data set [2] (oral 0.5 mg/Kg, 1 hour after administration) was 0/5; in data set [2] (oral 3 mg/Kg, 1 hour after administration), 3/5; in data set [2] (oral 3 mg/Kg, 10 hours after administration) it was 0/7; in data set [3] (oral 2 mg/Kg, 1 hour after administration), 2/5; in data set [3] (oral 10 mg/Kg, 1 hour after administration), 5/5; in data set [3] (oral 10 mg/Kg, 10 hours after administration), 4/5. Moreover, the “Efficacy (positive numbers/total numbers)” value in data set [3] (oral 10 mg/Kg, 48 hours after administration) is on record as 0/5. The “time of maximum serum concentrations after administration” value in data set [4] stood at 30 min.

Consider `O=C1[C@H]2CCCC[C@H]2C(=O)N1CCCCN1CCN(c2nsc3ccccc23)CC1` [perospirone, cis-N-[4-[4-(1,2-benzisothiazol-3-yl)-1-piperazinyl]butyl]cyclohexane-1,2-dicarboximide], for which, in data set [2] (oral administration, group of 3 mg/Kg), the antiserotonin activities entry is listed as “antiserotonin activities could not be recognized 10 hours after administration”. Also, the antidopaminergic activities result in data set [3] (oral administration) was “showed antidopaminergic activities 1 and 10 hours after administration but not 48 hours after administration”.
